Results reported in patent publication US10688169B2 (priority 2015, dated 2020).
“Also recorded” adds a separate entry of the source.

Tested on: ZIKA rabbits
Type: in vivo
Settings: rabbits n=3 immunized with CRM197-23* in alhydrogel day 0 and 14; sera before and after immunization

C[C@@H]1O[C@@H](O[C@H]2C(C(=O)O)O[C@H](OC3C(O)[C@@H](O)[C@H](C)O[C@H]3OC3C(O)[C@@H](O)[C@H](C)O[C@H]3OC3C(O)[C@@H](O)[C@H](C)O[C@H]3OCCCCCN)C(O)[C@H]2O[C@@H]2OC(CO)[C@H](O)[C@H](O)C2O)C(O)C(O)[C@H]1O (stereo partly drawn) [hexasaccharide 23*, 5-Amino-pentanyl α-L-rhamnopyranosyl-(1→4)-[P3-D-galactopyranosyl-(1→3)]-α-D-galactopyranosyluronic acid-(1→2)-α-L-rhamnopyranosyl-(1→2)-α-L-rhamnopyranosyl-(1→2)-α-L-rhamnopyranoside]
immunogenicity and cross-reactivity of antibodies by glycan microarray: specific antibodies are cross-reactive with native polysaccharide and other synthetic glycans; also recorded: immunogenic in rabbits and induces cross-reactive antibodies
